In series [1] the test system is Plasmodium berghei. Briefly: Antimalarial activity against Plasmodium berghei ANKA infected in po dosed mouse. Format: functional.
The test system of series [2] is Plasmodium falciparum. Description: Antimalarial activity against Plasmodium falciparum 3D7. In kind it is functional, organism-based.
The subject of series [3] is Plasmodium falciparum. Description: Antimalarial activity against Plasmodium falciparum RKL9. Format: functional, organism-based.
Series [4] has as its system Plasmodium falciparum. Description: Antimalarial activity against ART-sensitive Plasmodium falciparum 3D7. Format: functional, organism-based.
For series [5], the system named is Plasmodium falciparum. Briefly: Antimalarial activity against ART-resistant Plasmodium falciparum Dd2 harboring R539T mutant. In kind it is functional, organism-based.
For series [6], the system named is Plasmodium falciparum. Briefly: Antimalarial activity against ART-resistant Plasmodium falciparum NF54 harboring […] mutant. Format: functional, organism-based.
The subject of series [7] is Plasmodium falciparum. Briefly: Antimalarial activity against ART-sensitive Plasmodium falciparum NF54. Format: functional, organism-based.
Series [8] concerns Plasmodium falciparum. Briefly: Antimalarial activity against ART-sensitive Plasmodium falciparum W2. In kind it is functional, organism-based.
Series [9] concerns Plasmodium falciparum. Description: Antimalarial activity against Plasmodium falciparum. In kind it is functional, organism-based.
In another series the test system is Plasmodium yoelii. Briefly: Antimalarial activity against Plasmodium yoelii infected in mouse. In kind it is functional.
Series [10] deals with Plasmodium falciparum. Briefly: Antimalarial activity against chloroquine-sensitive Plasmodium falciparum NF54 infected in iv dosed mouse. Format: functional.
The test system of series [11] is Plasmodium falciparum. Description: Antimalarial activity against Plasmodium falciparum K1. In kind it is functional, organism-based.
Series [12] deals with Plasmodium falciparum. Description: Antimalarial activity against chloroquine-sensitive Plasmodium falciparum NF54. Format: functional, organism-based.
Series [13] relates to Plasmodium berghei. Description: Antimalarial activity against Plasmodium berghei K173 infected in mouse. Format: functional. Conditions: Plasmodium berghei, K173.
Series [14] relates to Plasmodium falciparum. Briefly: Antimalarial activity against Plasmodium falciparum W2. Format: functional, organism-based.
Series [15] deals with Plasmodium falciparum. Briefly: Antimalarial activity against Plasmodium falciparum NF54. Format: functional, organism-based.
Series [16] relates to Plasmodium falciparum. Description: Antimalarial activity against chloroquine-sensitive Plasmodium falciparum NF54 infected in po dosed mouse. Format: functional.
Series [17] deals with Plasmodium berghei. Description: Antimalarial activity against Plasmodium berghei N strain infected in mouse at 30 mg/kg, ip administered once daily for 4 days. Format: functional. The conditions noted are these: time 4 day.
In series [18] the test system is Plasmodium vinckei. Briefly: Antimalarial activity against Plasmodium vinckei infected in ip dosed mouse. Format: functional.
The subject of series [19] is Plasmodium vinckei. Description: Antimalarial activity against Plasmodium vinckei infected in po dosed mouse. Format: functional.
In series [20] the test system is Plasmodium falciparum. Briefly: Antimalarial activity against Plasmodium falciparum FcB1 at 1 ng/ml. In kind it is functional.
The subject of series [21] is Plasmodium falciparum. Briefly: Antimalarial activity against Plasmodium falciparum FcB1 at 100 ng/ml. In kind it is functional.
In series [22] the test system is Plasmodium falciparum. Briefly: Antimalarial activity against Plasmodium falciparum FcB1 at 10 ng/ml. Format: functional.
The test system of series [23] is Plasmodium berghei. Description: Antimalarial activity against Plasmodium berghei infected in mouse. In kind it is functional. The conditions noted are these: Plasmodium berghei.
Series [24] can be described thus: Cytotoxicity against human MRC5 cells. In kind it is toxicity, cell-based.
Series [25] relates to Plasmodium falciparum. Description: Antimalarial activity against chloroquine sensitive Plasmodium falciparum FCR-3. Format: functional, organism-based.
For series [26], the system named is Plasmodium berghei. Briefly: Antimalarial activity against Plasmodium berghei N strain infected in mouse at 15 mg/kg, ip administered once daily for 4 days. In kind it is functional. The conditions noted are these: time 4 day.
Series [27] has as its system Plasmodium falciparum. Description: Antimalarial activity against Plasmodium falciparum Dd2. In kind it is functional, organism-based.
For series [28], the system named is Plasmodium falciparum. Description: Antimalarial activity against late blood stage Plasmodium falciparum NF54 gametocytes. In kind it is functional, organism-based.

In brackets after ≈: the same amount, converted by molar mass. Some results are limits rather than exact numbers.

Take `CN1CCN(C2CCN(C(=O)CC3CCC4(CC3)OOC3(OO4)C4CC5CC(C4)CC3C5)CC2)CC1` (centres undefined): in the series with Plasmodium berghei [1] (Plasmodium berghei, ANKA), the ED90 was 4.18 mg/kg. Also, the ED50 (as a rule, the dose at which the effect has come halfway, by size or by number of responders) in the series with Plasmodium berghei [1] (Plasmodium berghei, ANKA, read-out: ED50) was found to be 1.33 mg/kg. The IC50 – broadly, the point on the concentration scale where inhibition reaches its midpoint – with Plasmodium falciparum [2] turned out to be 0.0008 µM.
In the series on Plasmodium falciparum [3], `CCN(Cc1cc(C2(C)OOC(c3c[nH]c4ccccc34)OO2)ccc1O)c1ccccc1` (centres undefined) had an IC50 of 8.19 µg/mL (≈ 18.3 µM).
Turning to `C[C@H]1[C@@H](OCCCNc2ccc([N+](=O)[O-])c3nonc23)O[C@@H]2O[C@]3(C)CC[C@H]4[C@H](C)CC[C@@H]1[C@@]24OO3`, the IC50 with Plasmodium falciparum [4] was determined as 0.0226 µM; in the series on Plasmodium falciparum [5], 0.0196 µM; with Plasmodium falciparum [6] it was 0.0095 µM; in the series on Plasmodium falciparum [7] it was 0.0112 µM; in the series with Plasmodium falciparum [8], 0.0096 µM.
On the same counts, the results for `C[C@H]1[C@H](N2CCN(c3ccc(S(=O)(=O)N(C)C)c4nonc34)CC2)O[C@@H]2O[C@]3(C)CC[C@H]4[C@H](C)CC[C@@H]1[C@@]24OO3` are 0.348 µM, 0.497 µM, 0.0135 µM, 0.0164 µM and 0.249 µM.
In the series with Plasmodium falciparum [9], `COC1(c2ccc(S(C)(=O)=O)cc2)CCC2(CCCCC2)OO1` (centres undefined) showed an IC50 of 0.031 µM.
For `C[C@H]1[C@H](OC(=O)CCC(=O)O)O[C@@H]2O[C@@]3(C)CC[C@H]4[C@H](C)CC[C@@H]1[C@@]24OO3` [ARTESUNATE], the ED50 in the series with Plasmodium yoelii turned out to be 5 mg/kg; with Plasmodium falciparum [10] it was 5.5 mg/kg; with Plasmodium berghei [13] it was 6.33 mg/kg/day; in the series with Plasmodium falciparum [16] it was 5.5 mg/kg. Besides, the IC50 is 0.0012 µg/mL with Plasmodium falciparum [11], 0.0184 µM with Plasmodium falciparum [12], 0.002 µM in the series on Plasmodium falciparum [14] and 0.0012 µg/mL with Plasmodium falciparum [15]. Further, the Activity in the series with Plasmodium berghei [17] is on record as 97.7%. In addition, in the series on Plasmodium falciparum [2] (read-out: EC50), the EC50 (commonly the concentration needed to bring the measured effect to its halfway point) worked out at 0.0089 µM.
In the case of `C[C@H]1[C@@H](OCCNCCNc2ccnc3cc(Cl)ccc23)O[C@@H]2O[C@]3(C)CC[C@H]4[C@H](C)CC[C@@H]1[C@@]24OO3`, the ED50 was 1.4 mg/kg in the series on Plasmodium vinckei [18] and 16 mg/kg with Plasmodium vinckei [19]. The same compound showed an IC50 with Plasmodium falciparum [2] of 0.0205 µM.
As for `CC1(c2ccccc2)OOC(c2ccccc2)(c2ccccc2)OO1`, the IC50 in the series with Plasmodium falciparum [3] stood at 3.91 µg/mL (≈ 11.7 µM).
`C[C@@H]1CC[C@H]2[C@@H](C)C(=O)N(CCC(=O)N(CC(=O)NC(=O)c3ccccc3)C(C)(C)C)[C@@H]3O[C@]4(C)CC[C@@H]1[C@@]23OO4`: the figures for the Activity in the series with Plasmodium falciparum [20], with Plasmodium falciparum [21] and in the series on Plasmodium falciparum [22] were 98%, 100% and 99%, respectively.
As for `CO[C@H]1O[C@@H]2O[C@@]3(C)CC[C@H]4[C@H](C)CC[C@@H]([C@H]1C)[C@@]24OO3`, the ED50 in the series with Plasmodium berghei [1] turned out to be 10.57 mg/kg; with Plasmodium berghei [23], 6 mg/kg. The IC50 in the series on Plasmodium falciparum [11] turned out to be 0.009 µM; in the series with Plasmodium falciparum [14], 0.007 µM; in the series on Plasmodium falciparum [15], 0.002 µM.
On to `C[C@@H]1CC[C@H]2[C@@H](C)C(=O)N(CCC(=O)N(CCO)CC(=O)NC(=O)c3ccccc3)[C@@H]3O[C@]4(C)CC[C@@H]1[C@@]23OO4`, for which the Activity worked out at 78% with Plasmodium falciparum [20], 100% in the series with Plasmodium falciparum [21] and 99% in the series with Plasmodium falciparum [22].
Turning to `CC1CC2CCC(C1)[C@@](C)(/C=C/[C@@H](O)C(C)(C)O)OO2` (some centres undefined), the ED50 in the series on Plasmodium yoelii worked out at 95 mg/kg. The IC50 in the series with Plasmodium falciparum [11] was 0.056 µM.
For `C[C@H]1[C@@H](OCCNCCCNc2ccnc3cc(Cl)ccc23)O[C@@H]2O[C@]3(C)CC[C@H]4[C@H](C)CC[C@@H]1[C@@]24OO3`, the values for the ED50 with Plasmodium vinckei [18] and with Plasmodium vinckei [19] were less than 0.8 mg/kg and 13 mg/kg, respectively. For the same compound, in the series on Plasmodium falciparum [2], the midpoint of inhibition, the IC50, lay at 0.0052 µM.
`C[C@H]1C(=O)O[C@@H]2O[C@]3(C)CC[C@H]4N(Cc5ccc(OCCN6CCOCC6)cc5)CC[C@@H]1[C@@]24OO3`: the IC50 turned out to be 35.6 µM in [24], 0.033 µM in the series on Plasmodium falciparum [11] and 0.018 µM in the series with Plasmodium falciparum [25]. Further, the Activity in the series with Plasmodium berghei [26] is given as 98.6%.
As for `C[C@H]1[C@H](CC(C[C@H]2O[C@@H]3O[C@]4(C)CC[C@H]5[C@H](C)CC[C@@H]([C@H]2C)[C@@]35OO4)C(=O)O)O[C@@H]2O[C@]3(C)CC[C@H]4[C@H](C)CC[C@@H]1[C@@]24OO3` (some centres undefined), the ED50 in the series with Plasmodium falciparum [10] was determined as 0.8 mg/kg; with Plasmodium falciparum [16], 2 mg/kg. For the same compound, in the series with Plasmodium falciparum [12], the response was half-maximal at 0.0024 µM (EC50).
For `CC(CNCCO[C@H]1O[C@@H]2O[C@]3(C)CC[C@H]4[C@H](C)CC[C@@H]([C@H]1C)[C@@]24OO3)Nc1ccnc2cc(Cl)ccc12` (some centres undefined), the ED50 turned out to be 1.1 mg/kg with Plasmodium vinckei [18] and 12 mg/kg with Plasmodium vinckei [19].
Turning to `C[C@H]1[C@H](N2CCN(C(=O)c3ccc(F)cc3)CC2)O[C@@H]2O[C@]3(C)CC[C@H]4[C@H](C)CC[C@@H]1[C@@]24OO3`, the IC50 in the series with Plasmodium falciparum [11] was found to be 0.0021 µM; in the series with Plasmodium falciparum [15] it was 0.00106 µM; in the series with Plasmodium falciparum [27] it was 0.0015 µM; in the series on Plasmodium falciparum [28], 0.0006 µM.
For `CCN(Cc1cc(C2(C)OOC(c3ccccc3O)OO2)ccc1O)c1ccccc1` (centres undefined), in the series with Plasmodium falciparum [3], the midpoint of inhibition, the IC50, lay at 5.3 µg/mL (≈ 12.5 µM).

These data come from ChEMBL document CHEMBL5244272 (Eur J Med Chem, 2021).
